Results taken from patent US11236121B2, “Crystalline 19-nor C3,3-disubstituted C21-N-pyrazolyl steroid” (priority 2016, dated 2022).
In brackets after ≈: the same amount, converted by molar mass. Entries after “also recorded” stand apart in the source; their conditions may differ. Where two headings read alike, the source gives them in different places.

Experiments:
[1] = type: physicochemical; settings: for stability of the crystalline form in words: XRPD, ambient conditions
Procedure: A PANalytical Empyrean X-ray powder diffractometer with a 12-well auto-sampler stage was used for analysis throughout this study. Resolution calibration of the instrument was performed every 6 months, and sensitivity measurements were performed after the sample stage was changed. A silicon (Si) pressed powder sample was used as the reference standard.
The wet cake of Form P (˜5 min air) was dried in two ways: (a) under air at room temperature overnight, and (b) under vacuum at 40° C. for 3 hours. Both dried cakes were analyzed by XRPD, 1H-NMR, and TGA.

[2] = Hygroscopicity by dynamic vapor sorption (DVS); type: physicochemical; settings: for water uptake at 80% RH / water uptake at 95% RH: DVS isotherm; for water uptake at 80% RH / water uptake at 95% RH / form change before and after DVS (XRPD) / hygroscopicity: 25° C.; for form change before and after DVS (XRPD) / hygroscopicity / water uptake at RH less than or equal to 95%: DVS; for water uptake at RH less than or equal to 95%: RH less than or equal to 95% (description section)
Procedure: Dynamic vapor sorption (DVS) was measured via an SMS (Surface Measurement Systems) DVS Intrinsic system. The relative humidity at 25° C. was calibrated against the deliquescence point of LiCl, Mg(NO3)2, and KCl.
The hygroscopicity of Form A, Form C, and Form K were investigated at 25° C. using DVS. The XRPD patterns of each sample before and after DVS were compared in order to investigate any potential form change.

[3] = type: physicochemical
Procedure: In each experiment, approximately 10 to 20 mg of Form A was suspended in 0.5 mL of a solvent or mixture of solvents. After stirring at RT or 50° C. for 48 hours, the solids were isolated by centrifugation for analysis (wet sample). If the suspensions turned into clear solution, the clear solutions were kept at ambient conditions for slow evaporation.
In one embodiment, the inter-conversion between Forms A, C and K can be studied in a series of slurry conversion experiments conducted in ethyl acetate, n-butanol, and methyl tert-butyl ether (MBTE) at both room temperature (RT) and 50° C. Compound 1 can display moderate solubility, and may yield solvated forms during these screening experiments. The transition temperature between Forms A and C was estimated to be ˜17° C., and the transition temperature between Forms K and C was above 100° C.

[4] = Equilibrium solubility of Forms A, C and P in ethyl acetate; type: physicochemical
Procedure: (§1) Solubility profiles of Forms A, C and P across a range of temperature can give an indication of the relative stability of different forms within different temperature ranges. Sufficient equilibrium solubility data were collected experimentally covering 5-70° C.

[5] = Crystal form and relative stability of slurried solids in EtOAc, checked by XRPD; type: physicochemical; settings: for Crystal Form Checked by XRPD: ethyl acetate
Procedure: During solubility measurements, an XRPD pattern was detected in (a) slurries of Form A in EtOAc at 5° C. (after 1 h) and 20° C. (after 2 days), (b) slurries of Form C in EtOAc at 5° C. (after 1 h) and 20° C. (after 7 days). There was no direct match of this solid form's XRPD pattern to other crystal forms of Compound 1.
as §1

## C[C@@]1(O)CC[C@H]2[C@H](CC[C@@H]3[C@@H]2CC[C@]2(C)[C@@H](C(=O)Cn4cc(C#N)cn4)CC[C@@H]32)C1 [Form J]
[1]
  stability of the crystalline form in words: metastable
[1]; drying at ambient conditions for 3 days
  form after drying (XRPD): transforms to Form A

## C[C@@]1(O)CC[C@H]2[C@H](CC[C@@H]3[C@@H]2CC[C@]2(C)[C@@H](C(=O)Cn4cc(C#N)cn4)CC[C@@H]32)C1 [Form L]
[1]
  stability of the crystalline form in words: metastable

## C[C@@]1(O)CC[C@H]2[C@H](CC[C@@H]3[C@@H]2CC[C@]2(C)[C@@H](C(=O)Cn4cc(C#N)cn4)CC[C@@H]32)C1 [Form E]
[1]; drying at ambient (room temperature) conditions
  form after drying (XRPD): transformed to a mixture of Forms A and C that exhibited low crystallinity

## C[C@@]1(O)CC[C@H]2[C@H](CC[C@@H]3[C@@H]2CC[C@]2(C)[C@@H](C(=O)Cn4cc(C#N)cn4)CC[C@@H]32)C1 [Form K]
[2]
  water uptake at 80% RH: 0.18 % by weight
  water uptake at 95% RH: less than 0.35 % by weight
  form change before and after DVS (XRPD): no form change
  hygroscopicity: non-hygroscopic
  water uptake at RH less than or equal to 95%: less than 0.35 weight percent

## C[C@@]1(O)CC[C@H]2[C@H](CC[C@@H]3[C@@H]2CC[C@]2(C)[C@@H](C(=O)Cn4cc(C#N)cn4)CC[C@@H]32)C1 [Forms A and K (with Form C seeds)]
[3]; Ethyl acetate, RT
  Final Form after slurry conversion: Form C

## C[C@@]1(O)CC[C@H]2[C@H](CC[C@@H]3[C@@H]2CC[C@]2(C)[C@@H](C(=O)Cn4cc(C#N)cn4)CC[C@@H]32)C1 [Form C]
[4]; 20 ° C., equilibration 2 day
  Solubility: 11.8 mg/mL (≈ 28.8 mM)
[4]; 30 ° C., equilibration 4 h
  Solubility: 14.9 mg/mL (≈ 36.4 mM)
[4]; 40 ° C., equilibration 7 h
  Solubility: 17.9 mg/mL (≈ 43.7 mM)
[4]; 50 ° C., equilibration 20 h
  Solubility: 23.7 mg/mL (≈ 57.9 mM)
[4]; 60 ° C., equilibration 4 h
  Solubility: 29.8 mg/mL (≈ 72.8 mM)
[2]
  water uptake at 80% RH: 0.12 % by weight
  water uptake at 95% RH: less than 0.30 % by weight
  form change before and after DVS (XRPD): no form change
  hygroscopicity: non-hygroscopic
  water uptake at RH less than or equal to 95%: less than 0.32 weight percent
[3]; estimated from slurry conversion experiments
  transition temperature between Forms A and C: ~17 °C
[3]; from slurry conversion experiments
  transition temperature between Forms K and C: above 100 °C
[3]; slurry conversion in ethyl acetate, n-butanol or methyl tert-butyl ether, room temperature to 50° C.
  thermodynamic stability compared to Form A and Form K: more thermodynamically stable
[5]; 5° C., after 1 h
  solid form detected by XRPD in slurry in EtOAc: Form P
[5]; 20° C., after 7 days
  solid form detected by XRPD in slurry in EtOAc: Form P
[5]; EtOAc, across the entire processing temperature range (5-70° C. data)
  relative stability of forms: more stable than Form A
[5]; 20 ° C., 2 day
  Crystal Form Checked by XRPD: No Form Change
[5]; 30 ° C., 4 h
  Crystal Form Checked by XRPD: No Form Change
[5]; 40 ° C., 7 h
  Crystal Form Checked by XRPD: No Form Change
[5]; 50 ° C., 20 h
  Crystal Form Checked by XRPD: No Form Change
[5]; 60 ° C., 4 h
  Crystal Form Checked by XRPD: No Form Change

## C[C@@]1(O)CC[C@H]2[C@H](CC[C@@H]3[C@@H]2CC[C@]2(C)[C@@H](C(=O)Cn4cc(C#N)cn4)CC[C@@H]32)C1 [Form I]
[1]
  stability of the crystalline form in words: metastable

## C[C@@]1(O)CC[C@H]2[C@H](CC[C@@H]3[C@@H]2CC[C@]2(C)[C@@H](C(=O)Cn4cc(C#N)cn4)CC[C@@H]32)C1 [Form P]
[4]; 5 °C, organic solvent or mixture, thermodynamic from solid, equilibration 20 h
  solubility at 20 h: 5.4 mg/mL (≈ 13.2 mM)
[4]; 10 °C, organic solvent or mixture, thermodynamic from solid, equilibration 3 day
  solubility at 3 day: 6.6 mg/mL (≈ 16.1 mM)
[4]; 15 °C, organic solvent or mixture, thermodynamic from solid, equilibration 2 day
  solubility at 2 day: 8 mg/mL (≈ 19.5 mM)
[4]; 20 ° C., equilibration 2 day
  Solubility: 11.4 mg/mL (≈ 27.8 mM)
[4]; 25 °C, organic solvent or mixture, thermodynamic from solid, equilibration 20 h
  solubility at 20 h: 12.6 mg/mL (≈ 30.8 mM)
[4]; 30 °C, organic solvent or mixture, thermodynamic from solid, equilibration 20 h
  solubility at 20 h: 13.5 mg/mL (≈ 33 mM)
[1]; wet cake dried under air at room temperature overnight
  XRPD pattern of dried cake: conforming to Form P
[1]; wet cake dried under vacuum at 40° C. for 3 hours
  XRPD pattern of dried cake: conforming to Form A
[5]; EtOAc, ≤20° C.
  relative stability of forms: more stable than both Forms A and C; also recorded: more stable than Form C
[5]; EtOAc, ≥35° C.
  stability in EtOAc: converts to Form A
[5]; 5 ° C., 20 h
  Crystal Form Checked by XRPD: Form P
[5]; 10 ° C., 3 day
  Crystal Form Checked by XRPD: Form P
[5]; 15 ° C., 2 day
  Crystal Form Checked by XRPD: Form P
[5]; 20 ° C., 2 day
  Crystal Form Checked by XRPD: No Form Change
[5]; 25 ° C., 20 h
  Crystal Form Checked by XRPD: Form P
[5]; 30 ° C., 20 h
  Crystal Form Checked by XRPD: Form P
[5]; 40 ° C., 24 h
  Crystal Form Checked by XRPD: Form P to Form

## C[C@@]1(O)CC[C@H]2[C@H](CC[C@@H]3[C@@H]2CC[C@]2(C)[C@@H](C(=O)Cn4cc(C#N)cn4)CC[C@@H]32)C1 [Form A]
[4]; 20 °C, organic solvent or mixture, thermodynamic from solid, equilibration 2 day
  solubility at 2 day: 12.4 mg/mL (≈ 30.3 mM)
[4]; 30 °C, organic solvent or mixture, thermodynamic from solid, equilibration 4 h
  solubility at 4 h: 15.5 mg/mL (≈ 37.8 mM)
[4]; 40 °C, organic solvent or mixture, thermodynamic from solid, equilibration 7 h
  solubility at 7 h: 18.8 mg/mL (≈ 45.9 mM)
[4]; 50 °C, organic solvent or mixture, thermodynamic from solid, equilibration 20 h
  solubility at 20 h: 25 mg/mL (≈ 61 mM)
[4]; 60 °C, organic solvent or mixture, thermodynamic from solid, equilibration 4 h
  solubility at 4 h: 31.7 mg/mL (≈ 77.4 mM)
[2]
  water uptake at 80% RH: 0.06 % by weight
  water uptake at 95% RH: less than 0.12 % by weight
  form change before and after DVS (XRPD): no form change
  hygroscopicity: non-hygroscopic
  water uptake at RH less than or equal to 95%: less than 0.30 weight percent
[5]; 5° C., after 1 h
  solid form detected by XRPD in slurry in EtOAc: Form P
[5]; 20° C., after 2 days
  solid form detected by XRPD in slurry in EtOAc: Form P
[5]; 20 ° C., 2 day
  Crystal Form Checked by XRPD: No Form Change
[5]; 30 ° C., 4 h
  Crystal Form Checked by XRPD: No Form Change
[5]; 40 ° C., 7 h
  Crystal Form Checked by XRPD: No Form Change
[5]; 50 ° C., 20 h
  Crystal Form Checked by XRPD: No Form Change
[5]; 60 ° C., 4 h
  Crystal Form Checked by XRPD: No Form Change

## C[C@@]1(O)CC[C@H]2[C@H](CC[C@@H]3[C@@H]2CC[C@]2(C)[C@@H](C(=O)Cn4cc(C#N)cn4)CC[C@@H]32)C1 [Form H]
[1]
  stability of the crystalline form in words: metastable

## C[C@@]1(O)CC[C@H]2[C@H](CC[C@@H]3[C@@H]2CC[C@]2(C)[C@@H](C(=O)Cn4cc(C#N)cn4)CC[C@@H]32)C1 [Form N]
[1]; overnight, under ambient conditions
  form after storage (XRPD): transforms to Form A

## C[C@@]1(O)CC[C@H]2[C@H](CC[C@@H]3[C@@H]2CC[C@]2(C)[C@@H](C(=O)Cn4cc(C#N)cn4)CC[C@@H]32)C1 [Forms A, C and K]
[3]; MBTE, 50° C.
  Final Form after slurry conversion: Form C
[3]; MBTE, RT
  Final Form after slurry conversion: Form C
[3]; n-Butanol, 50° C.
  Final Form after slurry conversion: Form C
[3]; n-Butanol, RT
  Final Form after slurry conversion: Form C

## C[C@@]1(O)CC[C@H]2[C@H](CC[C@@H]3[C@@H]2CC[C@]2(C)[C@@H](C(=O)Cn4cc(C#N)cn4)CC[C@@H]32)C1 [Forms A and K]
[3]; Ethyl acetate, 50° C.
  Final Form after slurry conversion: Form C
